Reference: the NIST ThermoML archive (doi:10.1021/acs.jced.9b00704)
Numbers after ± are expanded uncertainties.

Details: Liquid, Light diffraction method

CCCCCC(=O)OC [methyl hexanoate]
Details	speed of sound [m/s]
297.83 K, 110 kPa	1225.1 ± 20
298.17 K, 10000 kPa	1274.4 ± 20
298.35 K, 7010 kPa	1261.9 ± 20
298.56 K, 5000 kPa	1252.4 ± 20
298.76 K, 1010 kPa	1231.7 ± 20
298.85 K, 3000 kPa	1240.3 ± 20
306.48 K, 110 kPa	1182.9 ± 19
308.58 K, 10010 kPa	1227.8 ± 20
308.59 K, 1010 kPa	1186.9 ± 19
308.9 K, 7000 kPa	1221.1 ± 20
309.13 K, 5010 kPa	1210.5 ± 19
309.19 K, 3010 kPa	1197.6 ± 19
317.52 K, 10010 kPa	1181 ± 19
317.6 K, 7010 kPa	1175.8 ± 19
317.92 K, 100 kPa	1137 ± 18
318.3 K, 1000 kPa	1142.6 ± 18
318.41 K, 5010 kPa	1160.9 ± 19
319.17 K, 3010 kPa	1152.2 ± 18
327.21 K, 110 kPa	1090.2 ± 18
327.38 K, 7010 kPa	1130.2 ± 18
327.4 K, 10010 kPa	1143.2 ± 18
327.58 K, 1010 kPa	1097.9 ± 18
327.64 K, 5010 kPa	1120.6 ± 18
327.9 K, 3000 kPa	1107.9 ± 18
336.91 K, 100 kPa	1055.2 ± 17
337.21 K, 5000 kPa	1091.3 ± 18
337.21 K, 7010 kPa	1102.7 ± 18
337.71 K, 10010 kPa	1111.9 ± 18
337.95 K, 1000 kPa	1065.3 ± 17
337.97 K, 3000 kPa	1078 ± 17
346.56 K, 1010 kPa	1029.7 ± 16
346.9 K, 100 kPa	1021.1 ± 16
346.92 K, 10020 kPa	1081.3 ± 17
347.43 K, 7000 kPa	1067.3 ± 17
347.71 K, 3010 kPa	1040.3 ± 17
347.75 K, 5010 kPa	1054.8 ± 17
356.24 K, 3010 kPa	1011.9 ± 16
356.68 K, 10010 kPa	1048.7 ± 17
357.28 K, 100 kPa	970.4 ± 16
357.33 K, 7010 kPa	1033.1 ± 17
357.35 K, 5000 kPa	1022.1 ± 16
357.85 K, 1010 kPa	989.8 ± 16
366.38 K, 3010 kPa	970.6 ± 16
366.68 K, 5000 kPa	980.4 ± 16
366.89 K, 10000 kPa	1005.5 ± 16
367.18 K, 7000 kPa	989.6 ± 16
367.24 K, 1010 kPa	947.2 ± 15
367.48 K, 100 kPa	938.2 ± 15
377.25 K, 3000 kPa	927.9 ± 15
377.7 K, 10000 kPa	974.3 ± 16
377.72 K, 5000 kPa	939.5 ± 15
377.88 K, 110 kPa	903.5 ± 14
377.91 K, 1010 kPa	910.8 ± 15
377.97 K, 7000 kPa	961 ± 15
386.63 K, 3000 kPa	894.6 ± 14
386.85 K, 10000 kPa	945.8 ± 15
387.01 K, 1010 kPa	874.2 ± 14
387.07 K, 7000 kPa	922 ± 15
387.29 K, 5000 kPa	908.4 ± 15
387.73 K, 100 kPa	866.5 ± 14
396.7 K, 3000 kPa	862 ± 14
397.25 K, 10010 kPa	909.9 ± 15
397.54 K, 7020 kPa	891.4 ± 14
397.64 K, 1010 kPa	842.1 ± 14
397.83 K, 5000 kPa	875.5 ± 14
398.6 K, 90 kPa	827.8 ± 13
406.65 K, 1010 kPa	810.8 ± 13
406.78 K, 3010 kPa	828.8 ± 13
406.79 K, 7020 kPa	857.7 ± 14
406.89 K, 10000 kPa	885.7 ± 14
406.99 K, 5010 kPa	841.7 ± 14
407.93 K, 100 kPa	799 ± 13
416.99 K, 7010 kPa	835.1 ± 13
417.08 K, 1010 kPa	775.9 ± 12
417.12 K, 3000 kPa	796.9 ± 13
417.21 K, 5010 kPa	808.2 ± 13
417.21 K, 10020 kPa	864.4 ± 14
417.52 K, 110 kPa	764.3 ± 12
427.06 K, 1000 kPa	746 ± 12
427.25 K, 3000 kPa	770.6 ± 12
427.25 K, 5000 kPa	786.5 ± 13
427.33 K, 7000 kPa	805.5 ± 13
427.38 K, 10010 kPa	833.5 ± 13
436.99 K, 1010 kPa	714.9 ± 13
437.07 K, 5000 kPa	751.6 ± 12
437.97 K, 6990 kPa	771.5 ± 12
438.1 K, 9980 kPa	802.1 ± 13
439.3 K, 3000 kPa	727.5 ± 13
446.68 K, 3010 kPa	706.2 ± 13
447 K, 4990 kPa	723 ± 13
447.21 K, 10010 kPa	776 ± 12
447.38 K, 7000 kPa	744.5 ± 12
447.88 K, 1000 kPa	672.6 ± 12
456.61 K, 3000 kPa	673.8 ± 12
456.81 K, 9990 kPa	747 ± 12
456.84 K, 5000 kPa	695.3 ± 13
457.1 K, 7010 kPa	715.1 ± 13
457.84 K, 990 kPa	642.8 ± 12
466.22 K, 3010 kPa	642.9 ± 12
466.28 K, 5000 kPa	663.1 ± 12
466.3 K, 7000 kPa	689.7 ± 12
466.3 K, 10010 kPa	720.4 ± 13
466.46 K, 1010 kPa	613.5 ± 11
478.01 K, 1010 kPa	570.1 ± 10
478.28 K, 7000 kPa	646.3 ± 12
478.28 K, 10000 kPa	677.8 ± 12
478.34 K, 5010 kPa	623.4 ± 11
478.43 K, 3010 kPa	596.3 ± 11
487.58 K, 1000 kPa	535.4 ± 11
487.67 K, 3010 kPa	565.4 ± 10
487.67 K, 5000 kPa	595 ± 11
487.69 K, 7000 kPa	617 ± 11
487.71 K, 10000 kPa	653.5 ± 12
497.17 K, 1010 kPa	499.6 ± 10
497.36 K, 5000 kPa	568.5 ± 10
497.38 K, 7000 kPa	591.6 ± 11
497.43 K, 3010 kPa	534.1 ± 11
497.44 K, 10000 kPa	629.4 ± 11
506.49 K, 3000 kPa	503.9 ± 10
506.88 K, 1000 kPa	464.6 ± 9.3
506.97 K, 7010 kPa	563.3 ± 10
507.02 K, 10020 kPa	599.2 ± 11
507.11 K, 5010 kPa	535.1 ± 11
516.99 K, 1010 kPa	426.2 ± 9.4
517.52 K, 7010 kPa	531.6 ± 11
517.56 K, 3000 kPa	468.7 ± 9.4
517.6 K, 5010 kPa	504.9 ± 10
517.63 K, 10010 kPa	571 ± 10
528.29 K, 5000 kPa	472.6 ± 9.5
528.46 K, 7000 kPa	504 ± 10
528.65 K, 10010 kPa	547.3 ± 9.9
529.52 K, 3000 kPa	426 ± 9.4
538.04 K, 3000 kPa	396.8 ± 8.8
538.26 K, 5010 kPa	439.9 ± 8.9
538.26 K, 7000 kPa	472.1 ± 9.5
538.35 K, 10000 kPa	516.1 ± 10
547.56 K, 3000 kPa	362.7 ± 8.8
547.96 K, 5000 kPa	406.1 ± 9
548.18 K, 9980 kPa	498.8 ± 10
548.26 K, 7000 kPa	446 ± 9
557.68 K, 3000 kPa	321.9 ± 7.8
557.89 K, 7010 kPa	423 ± 9.4
558.07 K, 10000 kPa	472.6 ± 9.5
558.34 K, 5000 kPa	378.3 ± 8.4
565.69 K, 10010 kPa	446.4 ± 9
566.56 K, 3010 kPa	285.3 ± 7.5
567.58 K, 5000 kPa	346.5 ± 8.4
567.72 K, 7010 kPa	390.1 ± 8.6
575.39 K, 5000 kPa	317.9 ± 8.4
576.35 K, 7000 kPa	365.2 ± 8.8
576.45 K, 3010 kPa	241 ± 6.4
577.04 K, 10010 kPa	420.8 ± 9.3
586.48 K, 3000 kPa	197.5 ± 5.8
586.99 K, 5010 kPa	275 ± 7.8
587.76 K, 7000 kPa	334.6 ± 8.1
588.07 K, 10030 kPa	393.2 ± 8.7
